System: 817829-284-R-J1-PDC complex spheroids, viability
Assay: Anticancer human tumor 817829-284-R-J1-PDC patient-derived colon adenocarcinoma cell line growth inhibition [GQUAD]
Conditions: for IC50: curve of first compound; for viability, T/C: stronger effect = lower value
In short: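 Tumor cells were grown as complex spheroids with HUVEC endothelial cells and mesenchymal stem cells as stroma. G-quadruplex stabilizers were combined with targeted agents over half-log dilutions from near the clinical Cmax, or from 10 microM.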

[1] = second compound 0.0316 µM, first compound 0.0316 µM
[2] = second compound 0.0316 µM, first compound 0.1 µM
[3] = second compound 0.0316 µM, first compound 0.316 µM
[4] = second compound 0.0316 µM, first compound 1 µM
[5] = second compound 0.0316 µM, first compound 3.16 µM
[6] = second compound 0.0316 µM, first compound 10 µM
[7] = second compound 0.1 µM, first compound 0.0316 µM
[8] = second compound 0.1 µM, first compound 0.1 µM
[9] = second compound 0.1 µM, first compound 0.316 µM
[10] = second compound 0.1 µM, first compound 1 µM
[11] = second compound 0.1 µM, first compound 3.16 µM
[12] = second compound 0.1 µM, first compound 10 µM
[13] = second compound 0.316 µM, first compound 0.0316 µM
[14] = second compound 0.316 µM, first compound 0.1 µM
[15] = second compound 0.316 µM, first compound 0.316 µM
[16] = second compound 0.316 µM, first compound 1 µM
[17] = second compound 0.316 µM, first compound 3.16 µM
[18] = second compound 0.316 µM, first compound 10 µM
[19] = second compound 1 µM, first compound 0.0316 µM
[20] = second compound 1 µM, first compound 0.1 µM
[21] = second compound 1 µM, first compound 0.316 µM
[22] = second compound 1 µM, first compound 1 µM
[23] = second compound 1 µM, first compound 3.16 µM
[24] = second compound 1 µM, first compound 10 µM
[25] = second compound 3.16 µM, first compound 0.0316 µM
[26] = second compound 3.16 µM, first compound 0.1 µM
[27] = second compound 3.16 µM, first compound 0.316 µM
[28] = second compound 3.16 µM, first compound 1 µM
[29] = second compound 3.16 µM, first compound 3.16 µM
[30] = second compound 3.16 µM, first compound 10 µM
[31] = second compound 10 µM, first compound 0.0316 µM
[32] = second compound 10 µM, first compound 0.1 µM
[33] = second compound 10 µM, first compound 0.316 µM
[34] = second compound 10 µM, first compound 1 µM
[35] = second compound 10 µM, first compound 3.16 µM
[36] = second compound 10 µM, first compound 10 µM
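Also: spheroids exposed to agents for 7 days before readout.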
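For viability, T/C in this document: percent viability relative to DMSO vehicle control taken as 100%.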

`C#Cc1c(F)ccc2cc(O)cc(-c3ncc4c(N5CC6CCC(C5)N6)nc(OCC56CCCN5CC(F)C6)nc4c3F)c12` (stereo unspecified) + Cc1[nH]c2ccc(F)cc2c1-c1nc2c3cccnc3c3ncccc3c2[nH]1 gave an IC50 (second compound 0.0316 µM) greater than 10 µM, an IC50 (second compound 0.1 µM) greater than 10 µM and an IC50 (second compound 0.316 µM) greater than 10 µM. The IC50 (second compound 1 µM) was 5.6 µM, the IC50 (second compound 3.16 µM) was less than 0.0316 µM and the IC50 (second compound 10 µM) was less than 0.0316 µM. For the same compound, the viability, T/C [1] was 96.1%, the viability, T/C [2] was 95% and the viability, T/C [3] was 96.2%. It also gave a viability, T/C [4] of 90.4%, a viability, T/C [5] of 98% and a viability, T/C [6] of 118%. It also gave a viability, T/C [7] of 97.6%, a viability, T/C [8] of 108% and a viability, T/C [9] of 88.2%. The viability, T/C [10] was 102%, the viability, T/C [11] was 91.1% and the viability, T/C [12] was 108%. The viability, T/C [13] was 91%, the viability, T/C [14] was 96.1% and the viability, T/C [15] was 99.7%. It also gave a viability, T/C [16] of 86.6%, a viability, T/C [17] of 98.8% and a viability, T/C [18] of 81.1%. The viability, T/C [19] was 102%, the viability, T/C [20] was 90.4% and the viability, T/C [21] was 103%. For the same compound, the viability, T/C [22] was 93%, the viability, T/C [23] was 94.5% and the viability, T/C [24] was 4.87%. The viability, T/C [25] was 3.89%, the viability, T/C [26] was 4.3% and the viability, T/C [27] was 3.9%. For the same compound, the viability, T/C [28] was 3.3%, the viability, T/C [29] was 1.62% and the viability, T/C [30] was 0.11%. The viability, T/C [31] was 3%, the viability, T/C [32] was 12.8% and the viability, T/C [33] was 3.04%. The viability, T/C [34] was 2.02%, the viability, T/C [35] was 2.19% and the viability, T/C [36] was 0.17%.

`C=CC(=O)N1CCN(c2nc(=O)n(-c3c(C)ccnc3C(C)C)c3nc(-c4c(O)cccc4F)c(F)cc23)C(C)C1` (stereo unspecified) + Cc1[nH]c2ccc(F)cc2c1-c1nc2c3cccnc3c3ncccc3c2[nH]1 was tested, and the IC50 (second compound 0.0316 µM) was greater than 10 µM, the IC50 (second compound 0.1 µM) was greater than 10 µM and the IC50 (second compound 0.316 µM) was greater than 10 µM. It also gave an IC50 (second compound 1 µM) greater than 10 µM, an IC50 (second compound 3.16 µM) of 3.26 µM and an IC50 (second compound 10 µM) of less than 0.0316 µM. The viability, T/C [1] was 106%, the viability, T/C [2] was 81% and the viability, T/C [3] was 109%. It also gave a viability, T/C [4] of 74.4%, a viability, T/C [5] of 106% and a viability, T/C [6] of 97.5%. For the same compound, the viability, T/C [7] was 87.2%, the viability, T/C [8] was 90.1% and the viability, T/C [9] was 88.5%. It also gave a viability, T/C [10] of 91.2%, a viability, T/C [11] of 108% and a viability, T/C [12] of 92.8%. The viability, T/C [13] was 84.3%, the viability, T/C [14] was 102% and the viability, T/C [15] was 104%. It also gave a viability, T/C [16] of 101%, a viability, T/C [17] of 102% and a viability, T/C [18] of 104%. The viability, T/C [19] was 82.1%, the viability, T/C [20] was 97% and the viability, T/C [21] was 93.6%. The viability, T/C [22] was 97.6%, the viability, T/C [23] was 98.2% and the viability, T/C [24] was 79.8%. The viability, T/C [25] was 102%, the viability, T/C [26] was 99.3% and the viability, T/C [27] was 75.7%. The viability, T/C [28] was 68.2%, the viability, T/C [29] was 51.7% and the viability, T/C [30] was 32.4%. For the same compound, the viability, T/C [31] was 11.3%, the viability, T/C [32] was 18.4% and the viability, T/C [33] was 44.3%. The viability, T/C [34] was 15.1%, the viability, T/C [35] was 11.6% and the viability, T/C [36] was 17.1%.

With `CCCS(=O)(=O)Nc1ccc(F)c(C(=O)c2c[nH]c3ncc(-c4ccc(Cl)cc4)cc23)c1F` + Cc1[nH]c2ccc(F)cc2c1-c1nc2c3cccnc3c3ncccc3c2[nH]1 the IC50 (second compound 0.0316 µM) was 5.84 µM, the IC50 (second compound 0.1 µM) was 5.38 µM and the IC50 (second compound 0.316 µM) was 5.84 µM. For the same compound, the IC50 (second compound 1 µM) was 5.48 µM, the IC50 (second compound 3.16 µM) was 0.067 µM and the IC50 (second compound 10 µM) was 0.0549 µM. For the same compound, the viability, T/C [1] was 107%, the viability, T/C [2] was 106% and the viability, T/C [3] was 102%. For the same compound, the viability, T/C [4] was 107%, the viability, T/C [5] was 85% and the viability, T/C [6] was 19.3%. The viability, T/C [7] was 117%, the viability, T/C [8] was 107% and the viability, T/C [9] was 111%. For the same compound, the viability, T/C [10] was 95.4%, the viability, T/C [11] was 74.1% and the viability, T/C [12] was 22.6%. It also gave a viability, T/C [13] of 102%, a viability, T/C [14] of 113% and a viability, T/C [15] of 106%. The viability, T/C [16] was 92%, the viability, T/C [17] was 84.9% and the viability, T/C [18] was 21.6%. For the same compound, the viability, T/C [19] was 117%, the viability, T/C [20] was 106% and the viability, T/C [21] was 119%. The viability, T/C [22] was 101%, the viability, T/C [23] was 80.8% and the viability, T/C [24] was 16.9%. For the same compound, the viability, T/C [25] was 60.6%, the viability, T/C [26] was 40.4% and the viability, T/C [27] was 38%. For the same compound, the viability, T/C [28] was 23.6%, the viability, T/C [29] was 21.1% and the viability, T/C [30] was 10.1%. The viability, T/C [31] was 67.5%, the viability, T/C [32] was 30.9% and the viability, T/C [33] was 12%. For the same compound, the viability, T/C [34] was 5.4%, the viability, T/C [35] was 4.9% and the viability, T/C [36] was 5.95%.

From PubChem BioAssay AID2060503 (Molecular Pharmacology Branch, DTP, NCI, 2025)
